The record followed here is PubChem BioAssay (NCI).

Molecules are shown by their SMILES.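 Five concentrations, 48 hours, 96-well plates. TGI is the concentration that stops growth completely.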

For the first assay, the system named is PC-3 prostate. Briefly: growth of human tumour cells (NCI), 48 h.
In turn, `Fc1ccc(C(=C2CCN(CCc3ccc4[nH]c(=S)[nH]c4c3)CC2)c2ccc(F)cc2)cc1` registered a TGI of 8.76 µM.
With `C#CC(C)(C)OC(=O)C(=[N+]=[N-])C(C)=O`, the TGI was above 10 µM.
On the same count and under the same terms, then `CC(C)N(C(=O)C1(O)c2ccccc2C=Cc2ccccc21)C(C)C`, with 28.9 µM.
Same read-out and setting: the figure for `CCOC(=O)C1(C/C=C/CBr)CCc2ccccc2C1=O` (centres undefined) is 43 µM; for `COc1cc(C(C)=O)cc(C(=O)N(C(C)C)C(C)C)c1[Si](C)(C)C` it is above 100 µM; for `CCCCCC(=O)CCCCCCCC(O)CC(=O)OCC` (centres undefined) it is above 100 µM.
`CN1CCc2c(sc3ncn(C)c(=N)c23)C1` registered a TGI above 100 µM.
On the same count and under the same terms, then `O=S1(=O)Cc2ccc3c4c2-c2c(ccc5ccc(c-4c25)CS(=O)(=O)C3)C1`, with above 100 µM; and `N#CC1=C(Nc2ccccc2)SC=C(c2ccccc2)NC1=NCc1ccccc1`, with above 100 µM; and `COC(=O)c1c(C#N)[nH]c(-c2ccsc2)c1C(=O)OC`, with above 100 µM.
The same measure, in the same setting: then `Cc1cc(C)c2c(c1)C/C(=C\c1ccccc1C(=O)O)C2=O`, with above 100 µM; and `CCC(=O)O[C@H]1CC[C@H]2[C@@H]3CCC4=C/C(=N/OC(=O)c5cccc6c(=O)c7ccccc7[nH]c56)CC[C@]4(C)[C@H]3CC[C@]12C`, with above 100 µM; and `[N-]=[N+]=Nc1cc(=O)[nH]nc1-c1ccccc1`, with above 100 µM.
For `COc1ccc(NC(=O)N(C)CC2(O)CCC(C(C)(C)C)CC2)cc1` (centres undefined), the TGI is above 100 µM.
Still for that read-out and setting: then `[N-]=[N+]=NC1C(O)C(CO)OC1n1ccc(=O)[nH]c1=O` (centres undefined), with above 875 µM.
`CN(C)CCNC(=O)c1ccc2nc3c(nc2c1)C(=O)c1ccccc1-3` displayed a TGI above 100 µM.

A further assay deals with MCF7 breast. Briefly: growth of human tumour cells (NCI), 48 h.
`Fc1ccc(C(=C2CCN(CCc3ccc4[nH]c(=S)[nH]c4c3)CC2)c2ccc(F)cc2)cc1`: the TGI was determined as 5.94 µM.
The same measure, in the same setting: the figure for `C#CC(C)(C)OC(=O)C(=[N+]=[N-])C(C)=O` is above 10 µM.
The same measure, in the same setting: the figure for `CC(C)N(C(=O)C1(O)c2ccccc2C=Cc2ccccc21)C(C)C` is 31 µM; for `CCOC(=O)C1(C/C=C/CBr)CCc2ccccc2C1=O` (centres undefined) it is 33.5 µM; for `COc1cc(C(C)=O)cc(C(=O)N(C(C)C)C(C)C)c1[Si](C)(C)C` it is above 100 µM.
In the case of `CCCCCC(=O)CCCCCCCC(O)CC(=O)OCC` (centres undefined), the TGI was above 100 µM.
The molecule `CN1CCc2c(sc3ncn(C)c(=N)c23)C1` gave a TGI above 100 µM.
Still for that read-out and setting: then `O=S1(=O)Cc2ccc3c4c2-c2c(ccc5ccc(c-4c25)CS(=O)(=O)C3)C1`, with above 100 µM; and `N#CC1=C(Nc2ccccc2)SC=C(c2ccccc2)NC1=NCc1ccccc1`, with above 100 µM.
Same read-out and setting: the figure for `COC(=O)c1c(C#N)[nH]c(-c2ccsc2)c1C(=O)OC` is above 100 µM.
Same read-out and setting: the figure for `Cc1cc(C)c2c(c1)C/C(=C\c1ccccc1C(=O)O)C2=O` is above 100 µM.
For the molecule `CCC(=O)O[C@H]1CC[C@H]2[C@@H]3CCC4=C/C(=N/OC(=O)c5cccc6c(=O)c7ccccc7[nH]c56)CC[C@]4(C)[C@H]3CC[C@]12C`, the TGI was found to be 48.2 µM.
As to `[N-]=[N+]=Nc1cc(=O)[nH]nc1-c1ccccc1`, the TGI is above 100 µM.
For the molecule `COc1ccc(NC(=O)N(C)CC2(O)CCC(C(C)(C)C)CC2)cc1` (centres undefined), the TGI was above 100 µM.
Same read-out and setting: then `[N-]=[N+]=NC1C(O)C(CO)OC1n1ccc(=O)[nH]c1=O` (centres undefined), with above 875 µM; and `CN(C)CCNC(=O)c1ccc2nc3c(nc2c1)C(=O)c1ccccc1-3`, with above 100 µM.

The subject of the next assay is UACC-62 melanoma. Kind of assay: growth of human tumour cells (NCI), 48 h.
Consider `Fc1ccc(C(=C2CCN(CCc3ccc4[nH]c(=S)[nH]c4c3)CC2)c2ccc(F)cc2)cc1`, for which the TGI came to 19 µM.
Take `C#CC(C)(C)OC(=O)C(=[N+]=[N-])C(C)=O`: the TGI is above 10 µM.
Still for that read-out and setting: then `CC(C)N(C(=O)C1(O)c2ccccc2C=Cc2ccccc21)C(C)C`, with 29.5 µM; and `CCOC(=O)C1(C/C=C/CBr)CCc2ccccc2C1=O` (centres undefined), with 28.7 µM.
The same measure, in the same setting: the figure for `COc1cc(C(C)=O)cc(C(=O)N(C(C)C)C(C)C)c1[Si](C)(C)C` is above 100 µM; for `CN1CCc2c(sc3ncn(C)c(=N)c23)C1` it is above 100 µM; for `O=S1(=O)Cc2ccc3c4c2-c2c(ccc5ccc(c-4c25)CS(=O)(=O)C3)C1` it is above 100 µM.
On the same count and under the same terms, then `N#CC1=C(Nc2ccccc2)SC=C(c2ccccc2)NC1=NCc1ccccc1`, with above 100 µM; and `COC(=O)c1c(C#N)[nH]c(-c2ccsc2)c1C(=O)OC`, with above 100 µM; and `CCC(=O)O[C@H]1CC[C@H]2[C@@H]3CCC4=C/C(=N/OC(=O)c5cccc6c(=O)c7ccccc7[nH]c56)CC[C@]4(C)[C@H]3CC[C@]12C`, with above 100 µM.
The molecule `[N-]=[N+]=Nc1cc(=O)[nH]nc1-c1ccccc1` displayed a TGI above 100 µM.
Same read-out and setting: the figure for `COc1ccc(NC(=O)N(C)CC2(O)CCC(C(C)(C)C)CC2)cc1` (centres undefined) is 97.3 µM.
For `[N-]=[N+]=NC1C(O)C(CO)OC1n1ccc(=O)[nH]c1=O` (centres undefined), the TGI was above 875 µM.
`CN(C)CCNC(=O)c1ccc2nc3c(nc2c1)C(=O)c1ccccc1-3`: the TGI was above 100 µM.

In the next assay the test system is NCI/ADR-RES ovarian. Briefly: growth of human tumour cells (NCI), 48 h.
`Fc1ccc(C(=C2CCN(CCc3ccc4[nH]c(=S)[nH]c4c3)CC2)c2ccc(F)cc2)cc1` yielded a TGI of 37.3 µM.
`CC(C)N(C(=O)C1(O)c2ccccc2C=Cc2ccccc21)C(C)C` displayed a TGI of 35.4 µM.
As for `CCOC(=O)C1(C/C=C/CBr)CCc2ccccc2C1=O` (centres undefined), the TGI turned out to be 63.5 µM.
Same read-out and setting: the figure for `CCCCCC(=O)CCCCCCCC(O)CC(=O)OCC` (centres undefined) is above 100 µM; for `CN1CCc2c(sc3ncn(C)c(=N)c23)C1` it is above 100 µM; for `O=S1(=O)Cc2ccc3c4c2-c2c(ccc5ccc(c-4c25)CS(=O)(=O)C3)C1` it is above 100 µM.
`N#CC1=C(Nc2ccccc2)SC=C(c2ccccc2)NC1=NCc1ccccc1` had a TGI above 100 µM.
Same read-out and setting: then `COC(=O)c1c(C#N)[nH]c(-c2ccsc2)c1C(=O)OC`, with above 100 µM; and `CCC(=O)O[C@H]1CC[C@H]2[C@@H]3CCC4=C/C(=N/OC(=O)c5cccc6c(=O)c7ccccc7[nH]c56)CC[C@]4(C)[C@H]3CC[C@]12C`, with above 100 µM.
The same measure, in the same setting: the figure for `[N-]=[N+]=Nc1cc(=O)[nH]nc1-c1ccccc1` is above 100 µM.
In the case of `COc1ccc(NC(=O)N(C)CC2(O)CCC(C(C)(C)C)CC2)cc1` (centres undefined), the TGI is above 100 µM.
`[N-]=[N+]=NC1C(O)C(CO)OC1n1ccc(=O)[nH]c1=O` (centres undefined) came in with a TGI above 875 µM.

Another assay deals with NCI-H226 lung. Kind of assay: growth of human tumour cells (NCI), 48 h.
In turn, `Fc1ccc(C(=C2CCN(CCc3ccc4[nH]c(=S)[nH]c4c3)CC2)c2ccc(F)cc2)cc1` yielded a TGI of 52.3 µM.
The same measure, in the same setting: the figure for `C#CC(C)(C)OC(=O)C(=[N+]=[N-])C(C)=O` is above 10 µM; for `CC(C)N(C(=O)C1(O)c2ccccc2C=Cc2ccccc21)C(C)C` it is 35.8 µM; for `CCOC(=O)C1(C/C=C/CBr)CCc2ccccc2C1=O` (centres undefined) it is 27.7 µM.
The same measure, in the same setting: then `COc1cc(C(C)=O)cc(C(=O)N(C(C)C)C(C)C)c1[Si](C)(C)C`, with above 100 µM; and `CCCCCC(=O)CCCCCCCC(O)CC(=O)OCC` (centres undefined), with above 100 µM.
`CN1CCc2c(sc3ncn(C)c(=N)c23)C1` yielded a TGI above 100 µM.
For `O=S1(=O)Cc2ccc3c4c2-c2c(ccc5ccc(c-4c25)CS(=O)(=O)C3)C1`, the TGI is above 100 µM.
As for `COC(=O)c1c(C#N)[nH]c(-c2ccsc2)c1C(=O)OC`, the TGI was above 100 µM.
Molecule `Cc1cc(C)c2c(c1)C/C(=C\c1ccccc1C(=O)O)C2=O` displayed a TGI above 100 µM.
Same read-out and setting: the figure for `CCC(=O)O[C@H]1CC[C@H]2[C@@H]3CCC4=C/C(=N/OC(=O)c5cccc6c(=O)c7ccccc7[nH]c56)CC[C@]4(C)[C@H]3CC[C@]12C` is above 100 µM.
